Laboratory results taken from patent US20040096520A1, “Manganese compositions for reducing/preventing skin wrinkles and fine lines” (SOCIETE L'OREAL S.A., priority 2000, published 2004).

System: phrenic nerve/isolated diaphragm preparation
Conditions: 10^−3 M; contractions induced by indirect stimulation via the phrenic nerve (0.1 to 7 volts, 0.3 ms, 0.1 Hz); cumulative concentrations
Procedure: Activity of manganese gluconate and of manganese chloride in a model of nerve/muscle junction (motor plate) obtained in a phrenic nerve/isolated diaphragm preparation: investigation of a myorelaxant effect:
The phrenic nerve and the diaphragm were carefully isolated and placed in a 50 ml tank filled with survival fluid (Krebs Henseleit liquid) maintained at a temperature of 37° C. and oxygenated with a mixture of 95% oxygen and 5% CO2.
The variations in the tension of the diaphragm were then recorded with an initial preloading of several grams.
After a relaxation period of 30 min., the diaphragm was stimulated indirectly via the phrenic nerve.
On each preparation, the effect of the test products was evaluated, in a first stage, on the contractions induced by indirect stimulation via stimulation of the phrenic nerve (0.1 to 7 volts, 0.3 ms, 0.1 Hz) at increasing and cumulative concentrations from 10^−6 M to 10^−3 M.

| Substance | % of inhibition (indirect stimulation) [%] |
| --- | --- |
| manganese chloride [MnCl2] | 10 |
| manganese gluconate | 25 |
